According to patent US20130310356A1, “METHOD FOR TREATING BRAIN CANCER” (Niiki Pharma Acquisition Corp. 2, priority 2010, published 2013):

Legend:
[1] = tested on: T98G; details: cited from earlier work
[2] = tested on: U87; details: cited from earlier work
[3] = tested on: U373; details: cited from earlier work
[4] = tested on: human glioblastoma cell line U251; test: ATCC MTT Cell Proliferation Assay, U251; format: cell-based; details: U251, 72 hours treatment
Experimental: Tris(8-quinolinolato)gallium(III) and temozolomide were tested in human glioblastoma cell line U251 (which is resistant to BCNU, See Beljanski et al., Anticancer Res., 13(6A):2301-8 (1993)). Specifically, ATCC's MTT Cell Proliferation Assay® was performed using glioblastoma cell line U251. Stock cultures were allowed to grow to 70-80% confluence for this study. The anti-proliferative activity of tris(8-quinolinolato)gallium(III) or temozolomide against the cell line was evaluated in vitro using the ATCC's MTT Cell Proliferation Assay (Catalog No. 30-1010K). Cultures were maintained in a 37° C. humidified 5% CO2/95% air atmosphere. The cells were treated with tris(8-quinolinolato)gallium(III) or temozolomide at 1,000 μM, or a series of 4x dilutions thereof (250 μM, 62.5 μM, etc.). 100 μl of medium was removed from each well at 72 hours post-treatment and 10 μl MTT reagent was added to each well. The plates were incubated at 37° C. for 4 hours and then 100 μl of detergent was added. The plates were left overnight at room temperature in the dark and was read on a plate reader using SoftMax® Pro (version 5.2, Molecular Devices).
The absorbance data was analyzed as follows: Absorbance values were converted to Percent of Control and plotted against test agent concentrations for IC50 calculations using SoftMax® Pro (version 5.2, Molecular Devices). The plate blank signal average was subtracted from all wells prior to calculating the Percent of Control. Percent of Control values were calculated by dividing the absorbance values for each test well by the No Drug Control average (column 11 values; cells +vehicle control) and multiplying by 100. Plots of Compound Concentration versus Percent of Control were analyzed using the 4-parameter equation to obtain IC50 values and other parameters that describe the sigmoidal dose response curve.
The IC50 value for the test agent was estimated by curve-fitting the data using the following four parameter-logistic equation: […]

[5] = tested on: U373; test: MTT assay, glioblastoma cell line U373; format: cell-based; details: drug incubated 3 hours, MTT 72 hours after initial incubation
Experimental: (§1) To test the activities of tris(8-quinolinolato)gallium(III) (“drug”), MTT assays were performed using glioblastoma cell lines. Cells were plated (2×10^3 cells in 100 μl/well) in 96-well plates and allowed to recover for 24 hours. The drug was added in another 100 μl growth medium and incubated with cultured cells for 3 hours before the cell culture medium was replaced to remove the drug. Cell death was measured 72 hours after the initial incubation by MTT assay following the manufacturer's recommendations (EZ4U, Biomedica, Vienna, Austria).

[6] = tested on: ACHU; test: MTT assay, glioblastoma cell line ACHU; format: cell-based; details: drug incubated 3 hours, MTT 72 hours after initial incubation
Experimental: as §1

[7] = tested on: glioma cell line U87; test: 3-dimentional tumor model (HuBiogel), MTT assay and Calcein AM live-cell staining; format: cell-based
Experimental: The compound tris(8-quinolinolato)gallium(III) was tested in a 3-dimentional tumor model derived from glioma cell line U87. Specifically, cells were trypsinized, washed, counted by trypan blue exclusion. Tumor beads were then prepared by mixing 20,000 cells/10 μl of HuBiogel (4 mg/mL) (See U.S. patent application Ser. No. 10/546,506, which is incorporated herein by reference). The 3-D tumor beads were cultivated for 72 hours in multi-well plates with complete media (10% FBS) in a 37° C. incubator +5% CO2. Mini-tumors were treated with various concentrations of the test compound tris(8-quinolinolato)gallium(III) in media (final 0.2-0.3% DMSO) or control (DMSO). Repeated drug treatment was done by removing the culture media and replacing with fresh media with drug compound or DMSO. On Day 3, MTT assay and live-cell staining with Calcein AM were performed (5 beads/assay set).
Statistical analysis of data sets (Average, T-test, GI-50) was performed using MS-Excel program. The average GI-50 (the drug concentration required for growth inhibition at 50%) is 0.94 μM.

[8] = tested on: U87; test: MTT assay, glioblastoma cell line U87; format: cell-based
Experimental: as §1

[9] = tested on: T98G; test: MTT assay, glioblastoma cell line T98G; format: cell-based
Experimental: as §1

IC50 ([4]; Homo sapiens, U-251) [nM]	SMILES	BCNU (% cytostasis with 50 μg/ml BCNU) [1] [%]	BCNU (% cytostasis with 50 μg/ml BCNU) [2] [%]	BCNU (% cytostasis with 50 μg/ml BCNU) [3] [%]	IC50 [4] [nM]	IC50 [5] [nM]	IC50 [6] [nM]	GI50 ([7]; U87 3-D tumor beads in HuBiogel, MTT on Day 3, read-out: average GI-50 (drug concentration required for growth inhibition at 50%)) [nM]	tumor killing in live-cell staining/image analysis ([7]; U87 3-D tumor beads, Calcein AM, Day 3)	tumor proliferation activity ([7]; U87 3-D tumor beads, MTT, Day 3)	activity against cell line ([8]; U87, relatively resistant to BCNU)	IC50 ([8]; U87, drug incubated 3 hours, MTT 72 hours after initial incubation) [nM]	IC50 ([9]; drug incubated 3 hours, MTT 72 hours after initial incubation) [nM]	activity in cells ([9]; resistant to temozolomide)
	O=NN(CCCl)C(=O)NCCCl [BCNU]	37.5 ± 8.6	18.5 ± 8.2	30.4 ± 8.6	53700									
283000	Cn1nnc2c(C(N)=O)ncn2c1=O [temozolomide]													
	[Ga+3].[O-]c1cccc2cccnc12.[O-]c1cccc2cccnc12.[O-]c1cccc2cccnc12 [tris(8-quinolinolato)gallium(III)]				4040	2500	300	940	dose-dependent tumor killing	significantly inhibited	active	940	2000	active
